In patent US9802907B2, “2-aryl selenazole compound and pharmaceutical composition thereof” (JIANGSU ATOM BIOSCIENCE AND PHARMACEUTICAL CO., LTD., priority 2012, dated 2017) one finds IC50 data, which are given here for 1 substance.

This test deals with xanthine oxidase (Bos taurus (Bovine), UniProt P80457). To be noted: read-out: Xanthine Oxidase Inhibition Activity (IC50); xanthine oxidase sourced from milk, hypoxanthine substrate, 0.1 M Tris-HCl pH 7.5, 30° C.
Chain of xanthine oxidase (P80457 whole entry): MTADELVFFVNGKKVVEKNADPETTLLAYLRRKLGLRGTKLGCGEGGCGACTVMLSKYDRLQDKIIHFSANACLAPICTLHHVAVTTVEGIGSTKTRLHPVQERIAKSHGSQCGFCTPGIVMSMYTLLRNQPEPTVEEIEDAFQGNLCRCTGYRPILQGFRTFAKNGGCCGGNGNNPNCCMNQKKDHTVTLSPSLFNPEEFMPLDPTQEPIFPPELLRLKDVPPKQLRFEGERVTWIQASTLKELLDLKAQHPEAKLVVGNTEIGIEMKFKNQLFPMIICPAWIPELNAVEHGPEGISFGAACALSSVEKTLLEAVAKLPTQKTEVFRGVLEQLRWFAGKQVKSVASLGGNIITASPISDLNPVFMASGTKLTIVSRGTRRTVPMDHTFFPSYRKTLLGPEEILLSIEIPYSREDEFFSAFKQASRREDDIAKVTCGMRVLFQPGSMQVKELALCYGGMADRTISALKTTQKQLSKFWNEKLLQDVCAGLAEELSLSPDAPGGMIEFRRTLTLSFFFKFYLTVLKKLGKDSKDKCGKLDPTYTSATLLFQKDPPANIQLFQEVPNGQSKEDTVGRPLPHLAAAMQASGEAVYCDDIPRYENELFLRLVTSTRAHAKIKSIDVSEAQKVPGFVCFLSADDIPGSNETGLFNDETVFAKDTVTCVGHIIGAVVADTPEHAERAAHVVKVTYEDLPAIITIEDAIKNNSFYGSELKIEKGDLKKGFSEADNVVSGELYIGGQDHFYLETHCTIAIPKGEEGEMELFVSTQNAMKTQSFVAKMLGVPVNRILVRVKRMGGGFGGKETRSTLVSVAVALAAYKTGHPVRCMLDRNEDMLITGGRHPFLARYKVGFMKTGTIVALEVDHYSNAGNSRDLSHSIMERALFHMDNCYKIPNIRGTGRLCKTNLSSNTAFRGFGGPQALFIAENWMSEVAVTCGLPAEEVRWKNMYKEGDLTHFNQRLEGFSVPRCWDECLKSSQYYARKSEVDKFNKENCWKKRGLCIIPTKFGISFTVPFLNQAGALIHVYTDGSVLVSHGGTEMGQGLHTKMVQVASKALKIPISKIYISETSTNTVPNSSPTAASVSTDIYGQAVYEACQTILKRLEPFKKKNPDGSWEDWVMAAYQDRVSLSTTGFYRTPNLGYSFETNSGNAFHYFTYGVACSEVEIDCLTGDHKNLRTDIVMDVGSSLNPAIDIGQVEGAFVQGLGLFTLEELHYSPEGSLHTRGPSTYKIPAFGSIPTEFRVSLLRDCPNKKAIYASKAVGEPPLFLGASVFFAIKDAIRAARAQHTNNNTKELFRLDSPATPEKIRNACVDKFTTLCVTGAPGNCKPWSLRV

Method: The inhibition of the activity of xanthine oxidase (XO) is tested through a coupled enzymatic reaction of xanthine oxidase, horseradish peroxidase (HRP) and a substrate thereof. First, xanthine oxidase oxidizes hypoxanthine to produce xanthine and hydrogen peroxide, and further oxidizes xanthine to produce uric acid and hydrogen peroxide. […] The fluorescence intensity of resorufin is determined by using a fluorescence microplate, which is in direct proportion to the activity of xanthine oxidase.
A certain amount of a test compound and a control compound, febuxostat (by Beijing Lianben Pharm-chemicals Tech. Co., Ltd.) were dissolved in DMSO (by Sinopharm Chemical Reagent Co., Ltd.). A 2.5-fold serial dilution of the test compound was diluted with DMSO in a 96-well polypropylene reaction plate (by Greiner Bio One), so as to obtain a 200-fold dilution. The solution was further diluted in ultrapure water to obtain a 3-fold serial dilution. […]
9 μL reaction solution A and 9 μL 3-fold serial dilution of the test compound were mixed in a 96-well test plate (by Greiner Bio One), placed on a flat plate type oscillator, and mixed at 30° C. for 30 min at 100 rpm. […] The fluorescence intensity at 530 nm exciting light and 590 nm emitted light was determined by using a fluorescence microplate (Perkin Elmer Vitor X4).

Regarding “2-[3-bromo-4-(aniline formyl)-phenyl]-4-methyl-selenazole-5-carboxylic acid [Compound 67]”, the IC50 (as a rule, the concentration needed to halve the response being measured) was over 100 nM.
